Experimental data taken from ChEMBL document CHEMBL1144908, “5-HT4 receptor ligands: applications and new prospects” (J Med Chem, 2003).

How the values were obtained:
[1] = molecular target: T1, 5-hydroxytryptamine receptor 4 (Homo sapiens, UniProt Q13639); assay: (§1) Tested for 5-hydroxytryptamine 4 receptor antagonist activity; format: functional
[2] = molecular target: T1, 5-hydroxytryptamine receptor 4; assay: as §1; format: functional; remark: listed apart in the source
[3] = molecular target: 5-hydroxytryptamine receptor 4 (Cavia porcellus) (UniProt O70528); assay: Tested for affinity towards 5-hydroxytryptamine 4 receptor in guinea pig distal colon preparation; format: tissue-based
[4] = molecular target: 5-hydroxytryptamine receptor 4 (Cavia porcellus) (UniProt O70528); assay: Tested for affinity towards 5-hydroxytryptamine 4 receptor in electrically stimulated longitudinal muscle preparation of guinea pig ileum; format: tissue-based
[5] = molecular target: T1, 5-hydroxytryptamine receptor 4; assay: Tested for affinity towards 5-hydroxytryptamine 4 receptor.
[6] = molecular target: T1, 5-hydroxytryptamine receptor 4; assay: as §1; format: functional; remark: listed apart in the source
[7] = molecular target: 5-hydroxytryptamine receptor 4 (Rattus norvegicus) (UniProt Q62758); assay: Tested for affinity towards 5-hydroxytryptamine 4 receptor in relaxation of rat oesophagus
[8] = molecular target: 5-hydroxytryptamine receptor 4 (Mus musculus) (UniProt P97288); assay: Tested for 5-hydroxytryptamine 4 binding affinity against zacopride
[9] = molecular target: 5-hydroxytryptamine receptor 4 (Mus musculus) (UniProt P97288); assay: Tested for 5-hydroxytryptamine 4 binding affinity against renzapride
[10] = molecular target: 5-hydroxytryptamine receptor 4 (Mus musculus) (UniProt P97288); assay: Tested for 5-hydroxytryptamine 4 binding affinity against cisapride
Rattus norvegicus = species on record: Rattus norvegicus; assay: Tested for affinity towards 5-HT receptor in relaxation of carbachol contracted rat oesophaga muscularis; format: functional
[11] = molecular target: Serotonin 3 (5-HT3) receptor; assay: Tested for 5-hydroxytryptamine 3 receptor antagonist activity; format: functional
[12] = Tested for potency against electrically stimulated myenteric plexus; format: functional
[13] = molecular target: T2, 5-hydroxytryptamine receptor 3A (Homo sapiens, UniProt P46098); assay: Tested for 5-hydroxytryptamine 3 receptor agonist activity; format: functional
T2 sequence (P46098 whole entry): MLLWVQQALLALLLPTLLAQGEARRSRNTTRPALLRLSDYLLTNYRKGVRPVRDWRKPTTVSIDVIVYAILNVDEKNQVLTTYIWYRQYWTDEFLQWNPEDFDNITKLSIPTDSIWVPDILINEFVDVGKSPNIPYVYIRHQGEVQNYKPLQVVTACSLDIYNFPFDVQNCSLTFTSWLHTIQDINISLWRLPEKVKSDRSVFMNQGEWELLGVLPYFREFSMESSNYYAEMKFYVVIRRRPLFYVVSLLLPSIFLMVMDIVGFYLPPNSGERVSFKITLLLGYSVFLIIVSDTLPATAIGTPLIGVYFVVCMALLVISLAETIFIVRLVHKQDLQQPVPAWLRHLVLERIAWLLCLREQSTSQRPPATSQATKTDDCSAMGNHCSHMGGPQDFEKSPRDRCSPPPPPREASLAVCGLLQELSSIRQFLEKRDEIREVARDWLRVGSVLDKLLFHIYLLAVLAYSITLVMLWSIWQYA

[14] = molecular target: 5-hydroxytryptamine receptor 4 (Cavia porcellus, UniProt O70528); assay: Tested for affinity against 5-hydroxytryptamine 4 receptor in the myenteric plexus of the guinea pig ileum.; format: tissue-based
[15] = molecular target: T2, 5-hydroxytryptamine receptor 3A; assay: (§2) Compound was tested for 5-hydroxytryptamine 3 receptor binding affinity
[16] = molecular target: 5-hydroxytryptamine receptor 4 (Rattus norvegicus, UniProt Q62758); assay: Efficient 5-hydroxytryptamine 4 agonist in the rat tunica muscularis mucosae; format: functional, tissue-based, Muscularis mucosa
[17] = molecular target: Serotonin 3 (5-HT3) receptor; assay: as §2; format: protein-complex assay
Cavia porcellus = species on record: Cavia porcellus; assay: Tested for inhibitory activity against 5-HT induced contractions of guinea pig ileum; format: functional

Chain of 5-hydroxytryptamine receptor 4 (Mus musculus) (P97288 whole entry, looked up): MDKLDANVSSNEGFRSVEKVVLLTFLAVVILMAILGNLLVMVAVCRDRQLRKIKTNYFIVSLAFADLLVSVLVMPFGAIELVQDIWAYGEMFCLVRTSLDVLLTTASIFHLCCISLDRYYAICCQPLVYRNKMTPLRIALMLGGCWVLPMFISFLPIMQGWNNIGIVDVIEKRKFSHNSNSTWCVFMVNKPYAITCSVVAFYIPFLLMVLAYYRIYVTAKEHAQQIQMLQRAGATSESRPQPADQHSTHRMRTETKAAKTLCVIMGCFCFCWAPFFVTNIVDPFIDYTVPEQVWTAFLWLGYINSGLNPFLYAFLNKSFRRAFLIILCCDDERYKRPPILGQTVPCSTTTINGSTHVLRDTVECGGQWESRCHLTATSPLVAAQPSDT
Chain of 5-hydroxytryptamine receptor 4 (Cavia porcellus) (O70528 whole entry): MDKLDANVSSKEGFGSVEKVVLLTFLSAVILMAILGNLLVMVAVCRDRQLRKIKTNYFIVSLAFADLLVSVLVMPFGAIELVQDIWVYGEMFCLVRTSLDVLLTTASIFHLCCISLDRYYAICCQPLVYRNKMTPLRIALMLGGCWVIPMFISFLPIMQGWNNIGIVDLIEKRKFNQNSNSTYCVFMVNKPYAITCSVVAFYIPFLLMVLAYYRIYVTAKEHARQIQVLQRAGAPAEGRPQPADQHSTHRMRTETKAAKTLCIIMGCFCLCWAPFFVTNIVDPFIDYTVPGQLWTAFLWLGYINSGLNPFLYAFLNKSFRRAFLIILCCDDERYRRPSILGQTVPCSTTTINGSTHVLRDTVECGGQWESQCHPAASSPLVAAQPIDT
T1 sequence (Q13639 whole entry): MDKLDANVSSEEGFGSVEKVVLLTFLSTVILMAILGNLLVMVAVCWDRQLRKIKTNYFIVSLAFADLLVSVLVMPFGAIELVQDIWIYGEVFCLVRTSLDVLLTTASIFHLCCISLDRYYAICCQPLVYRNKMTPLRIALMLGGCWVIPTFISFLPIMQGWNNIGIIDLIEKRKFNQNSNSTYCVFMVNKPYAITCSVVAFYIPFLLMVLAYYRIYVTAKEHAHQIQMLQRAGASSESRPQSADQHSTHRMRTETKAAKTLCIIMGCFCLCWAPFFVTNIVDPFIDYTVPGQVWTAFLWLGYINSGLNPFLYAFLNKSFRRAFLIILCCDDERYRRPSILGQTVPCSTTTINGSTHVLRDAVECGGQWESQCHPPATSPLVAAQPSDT
Chain of 5-hydroxytryptamine receptor 4 (Rattus norvegicus) (Q62758 whole entry): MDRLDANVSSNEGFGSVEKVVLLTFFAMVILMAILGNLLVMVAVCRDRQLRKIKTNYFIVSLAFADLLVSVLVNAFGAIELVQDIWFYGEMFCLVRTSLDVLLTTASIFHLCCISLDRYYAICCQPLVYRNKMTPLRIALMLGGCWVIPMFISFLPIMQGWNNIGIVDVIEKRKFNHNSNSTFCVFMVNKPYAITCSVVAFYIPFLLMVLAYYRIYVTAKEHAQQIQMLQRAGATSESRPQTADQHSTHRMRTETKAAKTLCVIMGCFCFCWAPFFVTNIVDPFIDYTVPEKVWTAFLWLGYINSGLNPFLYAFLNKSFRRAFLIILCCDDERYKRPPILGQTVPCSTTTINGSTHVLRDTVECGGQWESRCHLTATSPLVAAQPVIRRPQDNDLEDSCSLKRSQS
Chain of 5-hydroxytryptamine receptor 4 (Rattus norvegicus, UniProt Q62758) (Q62758 whole entry): as above
Chain of 5-hydroxytryptamine receptor 4 (Cavia porcellus, UniProt O70528) (O70528 whole entry): as the sequence (O70528 whole entry) above

For CC(C)N1CCN(CCNC(=O)n2c(=O)n(C3CC3)c3ccccc32)CC1, which Ki [1] is on record?
Its Ki is 0.0166 µM.

What about the Ki [2] of the same molecule?
The Ki was 0.0067 µM.

For CCCCN1CCC(CNC(=O)c2c3n(c4ccccc24)CCCO3)CC1, which Activity [3] is on record?
Its Activity is 9.2 pIC50.

For N=C(N)N/N=C/c1c[nH]c2ccc(O)cc12, which Activity [4] is on record?
The Activity was 8.8 pD2.

With O=C(NCC1CCN2CCCCC2C1)c1c2n(c3ccccc13)CCCO2 (centres undefined) as the molecule, how does the Activity [3] read?
The Activity was 9.5 pIC50.

For CCCCN1CCC(CNC(=O)c2cc(Cl)c(N)c3c2OCCO3)CC1, which Activity [5] is on record?
Its Activity is 9 pKa.

With CC(C)n1c(=O)n(C(=O)NCCN2CCN(C)CC2)c2ccccc21 as the molecule, how does the Ki [2] read?
Its Ki is 0.0919 µM.

What about the Intrinsic activity [6] of the same molecule?
The Intrinsic activity was 0.94.

Which Activity [7] does the source give for COc1cc(N)c(Cl)cc1C(=O)CCC1CCN(CCNS(C)(=O)=O)CC1 here?
Its Activity is 8.6 pEC50.

For COc1cc(N)c(Cl)cc1C(=O)NC1CC2CCC(C1)N2C (centres undefined), which EC50 [8] is on record?
Its EC50 is 1.12 µM.

What about the EC50 [9] of the same molecule?
The EC50 was 0.126 µM.

What about the EC50 [10] of the same molecule?
Its EC50 is 0.0724 µM.

With COc1cc(COc2cc(N)c(Cl)cc2C(=O)CCC2CCN(CCNS(C)(=O)=O)CC2)cc(OC)c1 as the molecule, how does the Activity (Rattus norvegicus) read?
The Activity was 9.2 pKi.

Which Activity [7] does the source give for CCCCN1CCC(CCC(=O)c2cc(Cl)c(N)cc2OC)CC1 here?
The Activity was 8.4 pEC50.

Which Activity [4] does the source give for CCCCCNC(=N)N/N=C/c1c[nH]c2ccc(O)cc12 here?
Its Activity is 9.3 pD2.

With CCCCN1CCC(COC(=O)c2c3n(c4ccccc24)CCCO3)CC1 as the molecule, how does the Activity [3] read?
Its Activity is 10.6 pIC50.

For CNC1(CNC(=O)c2cc(Cl)c(N)cc2OC)CCCC1, which Ki [11] is on record?
The Ki was 0.009 µM.

For COc1cc(COc2cc(N)c(Cl)cc2C(=O)CCCCN2CCCCC2)cc(OC)c1, which Activity (Rattus norvegicus) is on record?
The Activity was 8.5 pKi.

For Nc1cc2c(cc1Cl)C(=O)NC1CCN(CCOCCO2)CC1, which EC50 [12] is on record?
The EC50 was 0.069 µM.

What about the Ki [13] of the same molecule?
The Ki was 0.0532 µM.

With CCCCCNC(=N)N/N=C/c1c[nH]c2ccc(OC)cc12 as the molecule, how does the Activity [4] read?
Its Activity is 6.9 pD2.

With CCOc1cc(N)c(Cl)cc1C(=O)NCC1CN(Cc2ccc(F)cc2)CCO1 (centres undefined) [MOSAPRIDE] as the molecule, how does the Ki [14] read?
The Ki was 0.084 µM.

Which Ki [15] does the source give for COc1cc(N)c(Cl)cc1C(=O)NC[C@@H]1CCN2CCC[C@@H]12 here?
Its Ki is 0.152 µM.

And the EC50 [16]?
The EC50 was 0.0237 µM.

Which results are given for COc1cc(N)c(Cl)cc1C(=O)NC1CCN2C(C)CCCC2C1 (centres undefined) [BRL-20627]?
EC50 [8]: 1.12 µM; EC50 [9]: 0.126 µM; EC50 [10]: 0.0724 µM

Which Ki [17] does the source give for COc1cc(N)c(Cl)cc1C(=O)NC1CCN(CCCOc2ccc(F)cc2)CC1OC (centres undefined) [CISAPRIDE] here?
The Ki was 0.152 µM.

For CCCCCN(C)C(=N)N/N=C/c1c[nH]c2c(C)cc(OC)cc12, which Activity (Cavia porcellus) is on record?
The Activity was 8.4 pA2.
